Reference: patent publication US12679825B2, “Crystalline and amorphous forms of a δ-opioid modulator” (Trevena, Inc., priority 2020, dated 2026)
Values after ≈ are worked out from the molar mass of the structure shown. “Also recorded” adds a separate entry of the source. Read-outs that look alike come from different tables or passages of the source.

What was measured:
Format in all cases: physicochemical
[1] = Dynamic Vapour Sorption (DVS)
Description: The following results and observations were obtained from this experiment (see Table 4 for further details): • After anti-solvent addition to the solutions at 20° C., the experiment carried out using tBME as the initial solvent system had solid adhered to the vial walls. The experiments carried out using MEK and THF as the initial solvent systems were cloudy, with some oil/gum formation noted. • After temperature cycling overnight, all experiments formed slurries. […] (peak at 98° C.) during the first heat. A glass transition with a mid-point half-height of ca. 32° C. was observed during the first cool. […] The residual tBME could not be quantified, due to overlapping signals with the API. Residual heptane was observed, equal to 0.91% w/w, or 0.05 equivalents. • ^1H NMR spectroscopy of the crystalline Form I isolated from MEK:heptane 20:80 v/v % was consistent with the structure of the compound of Formula I free base. The residual MEK could not be quantified, due to overlapping signals with the API. Residual heptane was observed, equal to 0.51% w/w, or 0.02 equivalents. • ^1H NMR spectroscopy of the crystalline Form I isolated from THF:heptane 22:78 v/v % was consistent with the structure of the compound of Formula I free base. The residual THF could not be quantified, due to overlapping signals with the API.
Crystalline forms of the compound of Formula I, including the crystalline Form I, were analyzed using Dynamic Vapour Sorption (DVS). Approximately 10-15 mg of sample was placed into a mesh vapour sorption balance pan and loaded into a DVS Intrinsic dynamic vapour sorption balance by Surface Measurement Systems. The sample was subjected to a ramping profile from 40-90% relative humidity (RH) at 10% increments, maintaining the sample at each step until a stable weight had been achieved (dm/dt 0.004%, minimum step length 30 minutes, maximum step length 120 minutes) at 25° C. After completion of the sorption cycle, the sample was dried using the same procedure to 0% RH and then a second sorption cycle back to 40% RH was carried out. Two cycles were performed. The weight change during the sorption/desorption cycles were plotted, allowing the hygroscopic nature of the sample to be determined. XRPD analysis was then carried out on the residual solid.

[2] = Aqueous solubility study (slurry in deionized water, HPLC); parameters: key to XRPD of residual solid, Wet / XRPD of residual solid, Dry: CRY: Crystalline
Description: The aqueous solubility of the crystalline Form I was assessed using the following procedure: • Approximately 10 mg of the dried material was slurried in deionized water (100 μL) at 20° C. with stirring. • Further aliquots of water (50 μL) were added until a mobile slurry was obtained. A total of 600 μL was used. • The slurry was stirred at 20° C. for 24 h then separated by centrifugation (0.22 μm nylon filter). • The residual solid was analyzed by XRPD and then dried under vacuum at ambient temperature (ca. 20° C.) for 72 h, prior to re-analysis by XRPD. The results are shown in FIG. 45. • The pH of the mother liquor was measured. • The mother liquors were analyzed by HPLC for purity and concentration.

[3] = Spectrometric (UV-metric) pKa; details: base; aqueous value by Yasuda-Shedlovsky extrapolation from methanol-water co-solvent; 25.0±0.2° C.; 0.15 M KCl
Description: (§1) Crystalline forms of the compound of Formula I, including the crystalline Form I, were analyzed using pKa and LogP. An automated titrator system with an incorporated UV-Vis spectrometer (SiriusT3™, Pion Inc.) was used to acquire the spectrometric and potentiometric data. The optical system consisted of a photodiode array detector with a deuterium lamp and a fiber optic dip probe.
(§2) The titrator module consisted of a temperature controller (by Peltier device with in-situ thermocouple), pH electrode, an overhead stirrer, and motorized dispensers for the automatic delivery of assay titrants and reagents via capillaries. The instrumentation was operated using SiriusT3Control software (V2.0). Data processing and generation of the reported pKa and logP values was carried out using SiriusT3Refine software (V2.0). The titrants used were 0.5 M hydrochloric acid and 0.5 M potassium hydroxide, standardized using potassium hydrogen phthalate. ACS or HPLC grade methanol cosolvent was used for pKa determination. Spectrophotometric experiments were carried out in the presence of a mid-range buffer solution (15 mM di-potassium hydrogen orthophosphate) or Neutral Linear Buffer™ to prevent uncontrolled pH-drift at mid-range pH. For logP assays, ACS or HPLC grade 1-octanol was used as the partition solvent.
All experiments were carried out at a controlled temperature of 25.0±0.2° C. […]

[4] = Potentiometric (pH-metric) LogP and logD profile; details: for logP: 25.0±0.2° C.
Description: as §1, §2
All experiments were carried out at a controlled temperature of 25.0±0.2° C. The pH range of titration assays is set between pH 2.0 to pH 12.0 unless otherwise stated. Prior to use, 0.5 M KOH base titrant is standardized by the titration of approximately 15 mg of potassium hydrogen phthalate, in triplicate. 0.5 M HCl titrant is subsequently standardized against the base titrant. The assay media for pKa determination is kept at a constant ionic strength of 0.15 M KCl and under argon atmosphere.
0.79 mg of sample was weighed into a 5 mL glass assay vial and titrated in a pH-metric triple titration in the presence of octanol from pH 2.0-12.0 at concentrations of 1.5-0.5 mM. The partition ratios of octanol/water were 0.012:1, 0.038:1 and 0.517:1. LogP was determined by comparing the pKa in water with the apparent pKa in the presence of octanol. The pH-metric logP experiment was conducted at 25.0±0.2° C. A lipophilicity profile (logD vs. pH) of the compound was calculated from the experimentally determined pKa and logP. The logD values are detailed in Table 12.

In the case of COCCOc1cccc([C@@H]2CCN(CCn3cccc3)[C@H](C)[C@H]2COc2ccc3c(c2)C(=O)NC3)c1 [crystalline Form I, (−)-6-{[(trans, trans)-4-[3-(2-methoxyethoxy)phenyl]-2-methyl-1-[2-(1H-pyrrol-1-yl)ethyl]piperidin-3-yl]methoxy}-2,3-dihydro-1H-isoindol-1-one], the DVS mass uptake ([1]; 25° C./80% RH, material isolated from tBME:heptane 50:50 v/v %) is reported as “ca. 0.5 % w/w”, the “Water Uptake (DVS, 25° C.) At 25° C./80%, RH” value ([1]; 25° C./80% RH, tBME:Heptane 50:50) is reported as 0.5% and the “Post-DVS XRPD” value ([1]; form after DVS analysis) is reported as “retained; also recorded: Form I”. The “Hygroscopicity (DVS)” value ([1]; material isolated from tBME:heptane 50:50 v/v %) was “slightly hygroscopic”, the “XRPD of residual solid, Dry” value ([2]; after slurrying in water and drying under vacuum 72 h) was “CRY” and the “XRPD of residual solid, Wet” value ([2]; after slurrying in water at 20° C. for 24 h) was “CRY”. For the same compound, the solubility at 24 h ([2]; thermodynamic from solid, deionized water, 20° C., slurry stirred 24 h, HPLC, mother liquor pH 6.84, read-out: Aqueous Solubility (solution concentration)) was 97 µg/mL (≈ 193 µM), the “Form after slurrying in water (XRPD)” value ([2]; water, 20° C., and after drying) was “retained” and the pKa [3] was 7.74 ± 0.04. The logD ([4]; 1-octanol/water, pH 5.000) was 1.2, the logP ([4]; octanol/water, read-out: LogP (Potentiometric), cationic species) was 0.6 ± 0.03 and the logP ([4]; octanol/water, read-out: LogP (Potentiometric), neutral species) was 3.81 ± 0.02. The logD ([4]; octanol/water, pH 1.2, pH 1.200, Stomach pH) was 0.6, the logD ([4]; octanol/water, pH 6.5, pH 6.500) was 2.55 and the logD ([4]; octanol/water, pH 7.4, pH 7.400, Blood pH) was 3.31. It also gave a logD ([4]; octanol/water, pH 1.000) of 0.6, a logD ([4]; octanol/water, pH 3.000) of 0.61 and a logD ([4]; octanol/water, pH 4.000) of 0.71. It also gave a logD ([4]; octanol/water, pH 6.000) of 2.08, a logD ([4]; octanol/water, pH 7.000) of 3 and a logD ([4]; octanol/water, pH 8.000) of 3.62. For the same compound, the logD ([4]; octanol/water, pH 9.000) was 3.79, the logD ([4]; octanol/water, pH 10.000) was 3.81 and the logD ([4]; octanol/water, pH 11.000) was 3.81. The logD ([4]; octanol/water, pH 12.000) was 3.81.
